Test results reported in article PMC10584170, “Machine learning-based phenotypic imaging to characterise the targetable biology of Plasmodium falciparum male gametocytes for the development of transmission-blocking antimalarials” (PLOS Pathogens, 2023).

Experiments:
[1] = tested on: P. falciparum male gametocytes; assay: P. falciparum Dual Gamete Formation Assay (PfDGFA), male readout (exflagellation); assay type: cell-based, Plasmodium falciparum NF54; settings: for Average inhibition male (%): average of replicates; for % inhibition male (individual replicates) R1: replicate R1; for % inhibition male (individual replicates) R3: replicate R3; for % inhibition male (individual replicates) R4: replicate R4; for Activity: hit = >50% inhibition in male or female readout in at least 3 replicates, 0 = no class assigned
Method in brief: (§1)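 Day-14 NF54 gametocytes were incubated with compound for 24 h at 37°C under 1% O2/3% CO2/96% N2. Gametogenesis was triggered with ookinete medium (0.1 μM xanthurenic acid) plus Cy3-anti-Pfs25, and exflagellation was imaged by brightfield after cooling to 4°C then 28°C. Females were imaged by Pfs25 fluorescence 24 h later at 28°C.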

[2] = tested on: P. falciparum female gametocytes; assay: P. falciparum Dual Gamete Formation Assay (PfDGFA), female readout (Pfs25-positive female gametes); assay type: cell-based, Plasmodium falciparum NF54; settings: for Average inhibition female (%): average of replicates; for % inhibition female (individual replicates) R1: replicate R1; for % inhibition female (individual replicates) R3: replicate R3; for % inhibition female (individual replicates) R4: replicate R4
Method in brief: as §1

[3] = 2µM, 24h preincubation with gametocytes prior to induction of gametogenesis
[4] = 2µM, 24h preincubation, number of replicates with >50% inhibition in the male readout
[5] = 2µM, 24h preincubation, number of replicates with >50% inhibition in the female readout
[6] = 2µM, 24h preincubation, hits selected on >50% inhibition in the male readout across replicates
[7] = PfDGFA at 2µM, 24h preincubation
[8] = 2µM, 24h preincubation, hits selected on >50% inhibition in the female readout across replicates
[9] = PfDGFA at 2µM, 24h preincubation with gametocytes prior to induction of gametogenesis
[10] = 2µM, 24h preincubation with gametocytes
[11] = PfDGFA at 2µM, 24h preincubation with gametocytes

Compound	Average inhibition male (%) [1, 3] [%]	% inhibition male (individual replicates) R1 [1, 3] [%]	% inhibition male (individual replicates) R3 [1, 3] [%]	% inhibition male (individual replicates) R4 [1, 3] [%]	Average inhibition female (%) [2, 3] [%]	% inhibition female (individual replicates) R1 [2, 3] [%]	% inhibition female (individual replicates) R3 [2, 3] [%]	% inhibition female (individual replicates) R4 [2, 3] [%]	% inhibition male (individual replicates) R1 [1, 9] [%]	% inhibition male (individual replicates) R3 [1, 9] [%]	% inhibition male (individual replicates) R4 [1, 9] [%]	Average inhibition male (%) [1, 7] [%]	% inhibition female (individual replicates) R1 [2, 9] [%]	% inhibition female (individual replicates) R3 [2, 9] [%]	% inhibition female (individual replicates) R4 [2, 9] [%]	Average inhibition female (%) [2, 7] [%]	also measured
CN1CCN(CCCCNc2c3ccccc3nc3ccccc23)CC1 [TCMDC-137479]	37.9	56.6	-27.6	45.6	21.2	27.6	-3.0	19.8									HitlevelM [1, 4]: 2; HitlevelF [2, 5]: 0
CCC(=C(CC)c1ccc(O)c(CNC2CCCCC2)c1)c1ccc(O)c(CNC2CCCCC2)c1.Cl [TCMDC-137481]	1.2	-0.3		0.8	5.6	2.3	13.0	6.2									HitlevelM [1, 6]: 0; Activity [1, 7]: 0; HitlevelF [2, 8]: 0
Nc1nc(Cc2ccc(Cl)cc2)nc(Cc2ccc(Cl)cc2)n1 [TCMDC-137497]									-13.6	-49.6	-34.5	-26.4	-4.6	-30.4	8.0	-6.5	
COc1ccc(O)cc1Cc1cnc2nc(N)nc(N)c2c1C [TCMDC-137498]	-10.8	7.6	-15.7	-40.5	6.7	14.0	17.6	8.3									HitlevelM [1, 6]: 0; Activity [1, 7]: 0; HitlevelF [2, 8]: 0
Clc1ccc(CNCCCCCCNCc2ccc(Cl)cc2)cc1.O=C(O)c1ccc2ccccc2c1O [TCMDC-137500]	60.2	69.1	26.6	76.2	9.2	13.6	-5.3	22.1									HitlevelM [1, 4]: 3; HitlevelF [2, 5]: 0
CCCN1CCN(CCNc2c3ccccc3nc3ccccc23)CC1 [TCMDC-137549]																	Average inhibition male (%) [1, 10]: 95.7%; % inhibition male (individual replicates) R1 [1, 10]: 96.4%; % inhibition male (individual replicates) R3 [1, 10]: 92.4%; % inhibition male (individual replicates) R4 [1, 10]: 99.6%; Average inhibition female (%) [2, 10]: 13.4%; % inhibition female (individual replicates) R1 [2, 10]: 14.9%; % inhibition female (individual replicates) R3 [2, 10]: 20.2%; % inhibition female (individual replicates) R4 [2, 10]: 28.7%
Br.CCCCCCCNCCNc1cc(C)nc2ccccc12 [TCMDC-137556]	11.5	12.4	4.0	8.2	18.1	25.7	0.5	18.7									HitlevelM [1, 4]: 0; HitlevelF [2, 5]: 0
COc1cccc2c(O)c(CNC3CCCCC3)ccc12.Cl [TCMDC-137595]									-3.5	3.4	4.2	3.3	-8.7	-13.9	-3.5	-7.6	
COc1ccc(CNCCCCCCNCc2ccc(OC)c3ccccc23)c2ccccc12.Cl [TCMDC-137631]																	Average inhibition male (%) [1, 11]: 83.3%; % inhibition male (individual replicates) R1 [1, 11]: 71.0%; % inhibition male (individual replicates) R3 [1, 11]: 73.6%; % inhibition male (individual replicates) R4 [1, 11]: 100.9%; HitlevelM ([1]; number of replicates with >50% inhibition in the male readout, 2µM): 4; Average inhibition female (%) [2, 11]: 47.3%; % inhibition female (individual replicates) R1 [2, 11]: 36.3%; % inhibition female (individual replicates) R3 [2, 11]: 33.7%; % inhibition female (individual replicates) R4 [2, 11]: 34.7%; HitlevelF ([2]; number of replicates with >50% inhibition in the female readout, 2µM): 1
Cc1nc2nc(N)nc(N)c2c(C)c1Cc1cccc(C#N)c1.Cl [TCMDC-137646]									10.9	34.4	21.2	19.8	-3.5	-14.6	5.5	-8.2	
Cc1ccc(Cc2c(C)nc3nc(N)nc(N)c3c2C)cc1.Cl [TCMDC-137657]									13.2	20.3	13.4	14.9	-6.6	8.8	-7.7	-3.5	
Cc1nc2nc(N)nc(N)c2c(C)c1Cc1ccccc1Cl.Cl [TCMDC-137668]	0.635	24.9	-5.5	-27.1	9.8	18.7	-14.7	32.6									HitlevelM [1, 6]: 0; Activity [1, 7]: 0; HitlevelF [2, 8]: 0
CC(C)N(Cc1cnc2nc(N)nc(N)c2n1)c1ccc(Cl)c(Cl)c1 [TCMDC-137675]									8.1	1.6	-34.5	-1.6	8.3	-2.9	6.8	1.4	
COc1ccc(N(C)Cc2cnc3nc(N)nc(N)c3n2)cc1 [TCMDC-137682]									16.6		-18.5	5.0	1.5	1.9	1.8	3.6	
CCCc1cc(Cc2cnc(N)nc2N)cc(CCC)c1O.Cl [TCMDC-137695]									13.3	-2.6	-24.5	-1.8	-0.04	-0.32	-11.2	-4.4	
